Reference: patent US20260315416A1, “PHENYLLACTIC ACID COMPOSITIONS AND RELATED METHODS OF USE” (priority 2023, published 2026)
Values after ≈ are worked out from the molar mass of the structure shown.

How the values were obtained:
[1] = Differential scanning calorimetry (DSC), glass transition temperature; type: physicochemical; details: cool/heat 5° C./min, 30 to −80° C.
Procedure: The TA Instruments DSC 2500 RCS40 cooling unit (TA instruments, New Castle, DE, USA), calibrated with indium, was used to record thermograms of pure compounds of D-PLA, L-PLA, carnitine, and their corresponding ILs. The samples were weighed (6-10 mg) and hermetically sealed in Tzero aluminium pans, along with an empty reference Tzero pan. The atmosphere was inert because of nitrogen purge at a rate of 25 mL/min. The samples were heated from 30° C. to the temperature equivalent to a 5% weight loss point with a 5° C./min ramp for each sample to observe thermal transitions. The glass transition temperature (Tg) for each sample was recorded in the cool/heat run at 5° C./min ramp from 30° C. to −80° C., and from −80° C. to 30° C. TRIOS software (TA instruments, New Castle, DE, USA) was used to analyse the data.

[2] = Thermogravimetric analysis (TGA), thermal stability; type: physicochemical; details: 30-350° C. at 10° C./min, nitrogen
Procedure: TA Instruments Discovery TGA 5500 (TA instruments, New Castle, DE, USA) was used to analyse pure PLA, carnitine, and various PLA ILs. The samples were accurately weighed (2-5 mg) in platinum pans and placed onto the autosampler. The samples were heated from 30° C. to 350° C. at 10° C./min; nitrogen was purged at a rate of 25 mL/min. TRIOS software (TA instruments, New Castle, DE, USA) was used to analyse the data.

[3] = pH determination of PLA ILs dissolved in water; type: physicochemical
Procedure: (§1) The equilibrium solubility of D-PLA, L-PLA, and their ILs was determined using a previously reported method.^30 An excess amount of D-PLA, L-PLA, or their ILs was added in an Eppendorf tube along with 1 mL of water. The sample was placed on an orbital shaker and was equilibrated at room temperature for 24 h with a speed of 200 rpm. After 24 h, the samples were centrifuged, the supernatant was filtered using a 0.22 μm syringe filter and further diluted using methanol as necessary. The D-PLA or L-PLA content in the supernatant was analyzed using the HPLC method to calculate the equilibrium solubility. Further, the pH values of D-PLA, L-PLA, and their ILs dissolved in water were determined using a VWR 1100L pH meter.

[4] = system: human cervical epithelial cells (A2EN); test: MTT assay for cervical cell proliferation/viability; type: cell-based; details: 24 h; even at 50 mM
Procedure: (§2) Human endocervical epithelial cell line (A2EN), generated from human endocervical explant tissue^31, was cultured as monolayers in keratinocyte serum-free medium (KFSM) supplemented with recombinant epidermal growth factor (5 ng/ml), bovine pituitary extract (50 μg/ml; Gibco), CaCl2 ([…]; Sigma-Aldrich), and primocin (100 μg/ml; InvivoGen, San Diego, CA), herein referred to as A2 medium, at 37° C. under 5% carbon dioxide (CO2) atmosphere.
(§3) Prior to cytotoxicity testing, PLA ILs were diluted to 1 M concentrations with distilled water and filtered using a sterile 0.2 μm syringe filter. Solutions with pH ranging from 4 to 7.5 were prepared by adjusting the pH of A2 media with hydrochloric acid (HCl), following filtration using a sterile 0.2 μm syringe filter.
Cervical cell monolayers were seeded into a tissue-treated 96-well microtiter plate (Corning Costar) at a density of 2.0×10^4 cells/well and incubated for 24 h at 37° C. under 5% CO2. Cells were treated with each PLA IL at concentrations ranging to 3.125 to 100 mM and incubated for 24 h (37° C. under 5% CO2). […] Absorbance was measured at 570 nm (reference 650 nm) and recorded using the Safire II Multi-Mode Microplate reader (Tecan, Mannedorf, Switzerland). Percentage cell viability was calculated as [sample absorbance−media background absorbance]/[control absorbance−media background absorbance]×100. […]

[5] = system: human cervical epithelial cells (A2EN); test: Crystal violet staining for cervical cell morphology; type: cell-based; details: 24 h; even at 100 mM
Procedure: as §2, §3
Cervical cell morphology following PLA IL treatment was visualised using 2.3% crystal violet stain with 0.1% ammonium oxalate and 20% ethanol (Sigma-Aldrich). Cervical cell monolayers were seeded into a tissue-treated 24-well microtiter plate (Falcon) at a density of 1.5×10^5 cells/well and incubated for 24 h at 37° C. under 5% CO2. Two-fold serial dilutions of each PLA IL were prepared and aliquoted into respective wells to obtain final concentrations of 3.125 to 100 mM. Deionised water and 1% Conceptrol (v/v), containing the detergent, nonoxynol-9, were used as negative and positive controls, respectively. […]

[6] = system: cervicovaginal epithelial barrier; details: cited from earlier work
bacteria and fungi = details: D-PLA vs L-PLA; cited from earlier work
[7] = Equilibrium (saturation) solubility in water; type: physicochemical; details: room temperature, HPLC; for saturation/equilibrium solubility in water: 24 h, 1440 min
Procedure: To evaluate the purity of the synthesized D- or L-PLA ILs and for the determination of their water solubility, a reverse phase-HPLC method was developed. The HPLC apparatus consisted of a Shimadzu LC2050C-3D system with a PDA detector. Samples were run through a C18 precolumn and a Gemini C18 reverse-phase column [150×4.5 mm (ID.)] with 5 μm particle size packing (Phenomenex, Torrance, CA). The mobile phase contained acetonitrile and 20 mM phosphoric acid solution in water (25:75). The flow rate of the mobile phase was at 0.8 mL/min, the column oven was set at 45° C., the injection volume was 10 μL, and the detection was carried out at 210 nm. The retention time for PLA was 5.5 min. For the standard curve, D- or L-PLA stock solutions (0.1 mg/mL) were prepared in methanol. The stock solutions were diluted to obtain solutions of various concentrations. The standard curve was obtained by injecting 5-25 μg/mL of PLA. All the experiments were performed in triplicate.
as §1

[8] = Kinetic solubility in water; type: physicochemical; details: vs equilibrium solubility
[9] = system: urogenital pathogens (Streptococcus agalactiae, Klebsiella pneumoniae, Candida albicans); details: in vitro; gram-positive, gram-negative and fungal urogenital pathogens; cited from earlier work
[10] = system: peroxisome proliferator-activated receptor γ (PPAR-γ); details: mouse model, early-life antibiotic exposure and high-fat diet; cited from earlier work
[11] = system: Salmonella enterica serovar Typhimurium-induced colitis; details: mice; cited from earlier work

| SMILES | T5% (onset temperature at 5% mass loss) [2] [°C] | saturation/equilibrium solubility in water [7] [mg/mL] | solubility thermodynamic at 24 h [7] [mg/mL] | kinetic solubility in water [8] | other results |
| --- | --- | --- | --- | --- | --- |
| C[N+](C)(C)CCO.O=C([O-])[C@H](O)Cc1ccccc1 [Chol:D-PLA (1:1)] | 94.3 | – | – | – | glass transition temperature (Tg) [1]: −63.53 °C; pH [3]: ~ 9; cell viability [4]: did not significantly reduce cervical epithelial cell viability; morphological changes [5]: no morphological changes were observed |
| C[N+](C)(C)C[C@H](O)CC(=O)[O-] [carnitine] | 189.9 | – | – | – | – |
| CC(O)C(=O)O (centres unmarked) [lactic acid] | – | – | – | – | anti-inflammatory activity [6]: anti-inflammatory activity; epithelial barrier integrity ([6]; physiological concentrations, tight junction protein expression): enhance cervicovaginal epithelial barrier integrity |
| O=C(O)[C@H](O)Cc1ccccc1 [D-PLA] | – | > 25 | 33.1 ± 0.44 (≈ 199 mM) | considerably lower | antimicrobial activity of enantiomer (bacteria and fungi): greater antimicrobial activity than L-PLA |
| O=C(O)[C@@H](O)Cc1ccccc1 [L-PLA] | 156.07 | > 25 | 25.7 ± 1.02 (≈ 154 mM) | considerably lower | – |
| O=C(O)C(O)Cc1ccccc1 (centres unmarked) [PLA, 2-hydroxy-3-phenylpropanoic acid] | – | – | – | low kinetic solubility in water | antimicrobial properties [9]: exhibits antimicrobial properties; PPAR-γ activity [10]: upregulates intestinal peroxisome proliferator-activated receptor γ (PPAR-γ) activity; protection against colitis [11]: protect against Salmonella enterica serovar Typhimurium-induced colitis in mice |
